Test results taken from patent US20030158250A1, “Agents correcting gene expression regulatory error” (priority 2000, published 2003).

Columns and labels:
TNFα = experiment: LPS-stimulated TNFα production in monocytes (ELISA); type: cell-based; details: human monocytes, final concentration 10 μM, 20 μM or 40 μM, 5 hours, then LPS 4 hours
Experimental: PBMCs were isolated in the same manner as in item (1) of Example 4. PBMCs were suspended in RPMI 1640 medium containing 5% human serum of blood type-AB, 0.1 mM nonessential amino acid, 1 mM sodium pyruvate, 2 mM L-glutamine (hereinabove manufactured by Bio Whittaker), 10 mM HEPES (manufactured by nakalai tesque), and 1% streptomycin-penicillin (manufactured by Gibco BRL) (hereinafter simply referred to as “5HRPMI medium”) so as to have a concentration of 2×10^6 cells/ml. Thereafter, the suspension was spread on a 24-well cell culture plate (manufactured by Falcon) in a volume of 1 ml/well, and the cells were incubated in a wet-type incubator at 37° C. and 5% CO2 for 1.5 hours. After 1.5 hours, the non-adherent cells were removed by suction, and each well was washed with RPMI 1640 medium, and 1 ml of the 5HRPMI medium was added to the wells, to give monocytes.
To the monocytes obtained above was added in each well 10 μl of a 1 mM, 2 mM or 4 mM aqueous DGE solution (each having a final concentration of 10 μM, 20 μM or 40 μM), or a 5 mM, 10 mM or 20 mM aqueous agarobiose solution (each having a final concentration of 50 μM, 100 μM or 200 μM), or 10 μl of water as a control (i.e. each of concentrations of DGE and agarobiose being 0 μM), and the cells were incubated in a wet-type incubator at 37° C. and 5% CO2 for 5 hours. […]

interleukin-10 (IL-10) = experiment: LPS-induced IL-10 production in RAW 264.7 cells (ELISA); type: cell-based; details: final concentration 20 μM, 5 hours, then LPS 18 hours, IL-10 in culture supernatant by ELISA
Experimental: RAW 264.7 cells (ATCC TIB 71) were suspended in a Dulbecco's modified Eagle's medium (manufactured by Bio Whittaker; 12-604F) containing 10% fetal bovine serum (manufactured by Gibco), so as to have a concentration of 3×10^5 cells/ml. The cell suspension was added to each well of a 48-well microtiter plate in a volume of 0.5 ml each. The cells were cultured at 37° C. in the presence of 5% CO2 gas overnight. To each well was added 5 μl of a 2 mM DGE aqueous solution (final concentration: 20 μM), and the cells were cultured for additional 5 hours. Thereafter, 5 μl of a 100 μg/ml lipopolysaccharide (LPS, manufactured by Sigma, L-2012) aqueous solution was added thereto, and the cells were cultured for 18 hours, and thereafter the culture supernatant was recovered. The content of the interleukin-10 (IL-10) in the culture supernatant was assayed by the enzyme immuno-sandwich assay. Here, the group with no addition of DGE and LPS aqueous solution (control) was set as a negative control, and the group with addition of LPS aqueous solution (control+LPS) alone was set as a positive control. In addition, all of the assays were carried out twice.

## O=C1C=CC(CO)OC1O [DGE, L-glycero-1,5-epoxy-1αβ,6-dihydroxy-cis-hex-3-en-2-one]
TNFα
  inhibition of LPS-stimulated TNFα production: inhibition
interleukin-10 (IL-10)
  inhibition of LPS-induced IL-10 production: inhibition of LPS-induced IL-10 production was found
